≈ marks a conversion by molar mass, not a printed value.
What was measured:
Experiment in all cases: In vitro antibacterial activity, MIC by agar double dilution method
Type in all cases: cell-based
Enterococcus (6 strains) = settings: clinical isolates, 35° C. 16 hrs
Excerpt: (§1) Experimental method: The agar double dilution method (Antimicrob. Agents and Chemother, 40, 1996, 720-726) was used to determine the minimum inhibitory concentration (MIC) of the series of compounds of the invention and the positive control drug linezolid for the test strains. The multipoint inoculation system (Denley A400) was employed to inoculate the bacteria on the agar plate surface with different concentrations of drugs; inoculation amount on each point was about 10^6 CFU/mL. The plates were incubated at 35° C. for 16 hrs before the results were observed. The lowest drug concentration contained in the Petri dish without bacterial growth was used as the minimum inhibitory concentration (MIC value) of the drug fir that strain.
(§2) Test strains: All the test strains were clinically isolated pathogens which were collected from the Nanjing region, and they were re-identified by routine methods before use. 31 strains of the clinically isolated pathogens were chosen, including 6 strains of Enterococcus, 5 Staphylococcus aureus sensitive strains; 5 Staphylococcus epidermidis sensitive strains; 6 Staphylococcus aureus resistant strains; 5 Staphylococcus epidermidis resistant strains; and 4 Streptococcus pneumoniae resistant strains.
(§3) Compounds to be tested were first added 2 ml of DMSO to help them fully dissolved, then added sterile double distilled water to the desired concentration; to all the Petri dish with added drug liquid were added 20 mL MIT medium which was heat-melted to be liquid-like, to make the final drug concentration in the Petri dish to be 64, 32, 16, 8, 4, 2, 1, 0.5, 0.25, 0.125, 0.0625, and 0.031 μg/mL.
(§4) The positive control group was LZ (linezolid, brand name Zyvox, approved by the FDA in 2000 to be firstly sold in the United States, which is the first and also the only one of oxazolidinone antibacterial drugs allowed to enter clinical application).

[1] = test system: Staphylococcus aureus resistant strains (6 strains); settings: clinical isolates
Excerpt: as §1, §2, §3, §4

[2] = test system: Staphylococcus aureus sensitive strains (5 strains); settings: clinical isolates
Excerpt: as §1, §2, §3, §4

[3] = test system: Staphylococcus epidermidis resistant strains (5 strains); settings: clinical isolates
Excerpt: as §1, §2, §3, §4

[4] = test system: Staphylococcus epidermidis sensitive strains (5 strains); settings: clinical isolates
Excerpt: as §1, §2, §3, §4

[5] = test system: Streptococcus pneumoniae resistant strains (4 strains); settings: clinical isolates
Excerpt: as §1, §2, §3, §4

Row | Compound | MIC (Enterococcus (6 strains)) [µg/mL] | MIC [1] [µg/mL] | MIC [2] [µg/mL] | MIC [3] [µg/mL] | MIC [4] [µg/mL] | MIC [5] [µg/mL]
1 | O=C1O[C@@H](CO)[C@@H]2COc3cc(-c4ccc(C(O)C5CC5)nc4)ccc3N12 (stereo partly drawn) [Compound 6, (3R,3aS)-7-(6-(cyclopropyl(hydroxyl)methyl)pyridin-3-yl)-3-(hydroxyl-methyl)-3a,4-dihydrobenzo[b]oxazolo[3,4-d][1,4]oxazin-1(3H)-one] | 2 (≈ 5.43 µM) | 1 to 2 (≈ 2.71 to 5.43 µM) | 1 (≈ 2.71 µM) | 1 (≈ 2.71 µM) | 0.5 to 1 (≈ 1.36 to 2.71 µM) | 1 to 2 (≈ 2.71 to 5.43 µM)
2 | CC(C)(O)c1ccc(-c2ccc3c(c2)OC[C@H]2[C@H](CO)OC(=O)N32)cn1 [Compound 7, (3R,3aS)-3-(hydroxylmethyl)-7-(6-(2-hydroxylpropyl-2-yl)pyridin-3-yl)-3a,4-dihydrobenzo[b]oxazolo[3,4-d][1,4]oxazin-1(3H)-one] | 4 (≈ 11.2 µM) | 1 to 4 (≈ 2.81 to 11.2 µM) | 1 to 4 (≈ 2.81 to 11.2 µM) | 2 (≈ 5.61 µM) | 1 to 4 (≈ 2.81 to 11.2 µM) | 2 to 4 (≈ 5.61 to 11.2 µM)
3 | CC(O)c1ccc(-c2ccc3c(c2)OC[C@H]2[C@H](CO)OC(=O)N32)cn1 (stereo partly drawn) [Compound 8, (3R,3aS)-7-(6-(1-hydroxylethyl)pyridin-3-yl)-3-(hydroxylmethyl)-3a,4-dihydrobenzo[b]oxazolo[3,4-d][1,4]oxazin-1(3H)-one] | 2 to 4 (≈ 5.84 to 11.7 µM) | 1 to 2 (≈ 2.92 to 5.84 µM) | 1 to 2 (≈ 2.92 to 5.84 µM) | 1 to 2 (≈ 2.92 to 5.84 µM) | 1 (≈ 2.92 µM) | 2 to 4 (≈ 5.84 to 11.7 µM)
4 | O=C1O[C@@H](CO)[C@@H]2COc3cc(-c4ccc(CO)nc4)ccc3N12 [Compound 9, (3R,3aS)-3-(hydroxylmethyl)-7-(6-(hydroxylmethyl)pyridin-3-yl)-3a,4-dihydrobenzo[b]oxazolo[3,4-d][1,4]oxazin-1(3H)-one] | 4 (≈ 12.2 µM) | 1 to 2 (≈ 3.05 to 6.09 µM) | 1 to 2 (≈ 3.05 to 6.09 µM) | 0.5 to 1 (≈ 1.52 to 3.05 µM) | 0.5 (≈ 1.52 µM) | 2 to 4 (≈ 6.09 to 12.2 µM)
5 | O=C1O[C@@H](CO)[C@@H]2COc3cc(-c4ccc(C5(O)CCCC5)nc4)ccc3N12 [Compound 10, (3R,3aS)-7-(6-(1-hydroxylcyclopentyl)pyridin-3-yl)-3-(hydroxylmethyl)-3a,4-dihydrobenzo[b]oxazolo[3,4-d][1,4]oxazin-1(3H)-one] | 2 to 4 (≈ 5.23 to 10.5 µM) | 1 to 2 (≈ 2.61 to 5.23 µM) | 2 (≈ 5.23 µM) | 1 to 2 (≈ 2.61 to 5.23 µM) | 1 to 2 (≈ 2.61 to 5.23 µM) | 2 (≈ 5.23 µM)
6 | CN1CCN(c2ccc(-c3ccc4c(c3)OC[C@H]3[C@H](CO)OC(=O)N43)cn2)CC1 [Compound 12, (3R,3aS)-3-(hydroxylmethyl)7-(6-(4-methylpiperazin-1-yl)pyridin-3-yl)-3a,4-dihydrobenzo[b]oxazolo[3,4-d][1,4]oxazin-1(3H)-one] | 2 to 4 (≈ 5.04 to 10.1 µM) | 4 to 8 (≈ 10.1 to 20.2 µM) | 2 to 4 (≈ 5.04 to 10.1 µM) | 4 (≈ 10.1 µM) | 2 to 4 (≈ 5.04 to 10.1 µM) | 4 (≈ 10.1 µM)
7 | CC(C)N1CC(c2ccc(-c3ccc4c(c3)OC[C@H]3[C@H](CO)OC(=O)N43)cn2)OC1=O (stereo partly drawn) [Compound 15, (3R,3aS)-3-(hydroxylmethyl)-7-(6-(3-isopropyl-2-oxazolidin-5-yl)pyridin-3-yl)-3a,4-dihydrobenzo[b]oxazolo[3,4-d][1,4]oxazin-1(3H)-one] | 1 to 2 (≈ 2.35 to 4.7 µM) | 1 to 2 (≈ 2.35 to 4.7 µM) | 1 to 2 (≈ 2.35 to 4.7 µM) | 2 to 4 (≈ 4.7 to 9.4 µM) | 1 to 2 (≈ 2.35 to 4.7 µM) | 2 (≈ 4.7 µM)
8 | O=C1OC(c2ccc(-c3ccc4c(c3)OC[C@H]3[C@H](CO)OC(=O)N43)cn2)CN1Cc1ccccc1 (stereo partly drawn) [Compound 16, (3R,3aS)-7-(6-(3-benzyl-2-oxazolidin-5-yl)pyridin-3-yl)-3-(hydroxylmethyl)-3a,4-dihydrobenzo[b]oxazolo[3,4-d][1,4]oxazin-1(3H)-one] | 1 to 2 (≈ 2.11 to 4.22 µM) | 1 to 2 (≈ 2.11 to 4.22 µM) | 1 to 2 (≈ 2.11 to 4.22 µM) | 2 to 4 (≈ 4.22 to 8.45 µM) | 1 to 2 (≈ 2.11 to 4.22 µM) | 2 (≈ 4.22 µM)
9 | Cn1nnc(-c2ccc(-c3ccc4c(c3)OC[C@H]3[C@H](CO)OC(=O)N43)cn2)n1 [Compound 17, (3R,3aS)-3-(hydroxylmethyl)-7-(6-(2-methyl-2H-tetrazol-5-yl)pyridin-3-yl)-3a,4-dihydrobenzo[b]oxazolo[3,4-d][1,4]oxazin-1(3H)-one] | 4 (≈ 10.5 µM) | 1 to 2 (≈ 2.63 to 5.26 µM) | 1 to 4 (≈ 2.63 to 10.5 µM) | 1 to 2 (≈ 2.63 to 5.26 µM) | 1 to 2 (≈ 2.63 to 5.26 µM) | 1 to 2 (≈ 2.63 to 5.26 µM)

Now from value to compound:

Row | MIC (Enterococcus (6 strains)) [µg/mL] | MIC [1] [µg/mL] | MIC [2] [µg/mL] | MIC [3] [µg/mL] | MIC [4] [µg/mL] | MIC [5] [µg/mL] | Compound
10 | 2 to 4 (≈ 5.03 to 10.1 µM) | 2 to 4 (≈ 5.03 to 10.1 µM) | 2 to 4 (≈ 5.03 to 10.1 µM) | 2 to 4 (≈ 5.03 to 10.1 µM) | 1 to 2 (≈ 2.52 to 5.03 µM) | 2 to 4 (≈ 5.03 to 10.1 µM) | O=C1COCCN1c1ccc(-c2ccc3c(c2)OC[C@H]2[C@H](CO)OC(=O)N32)cn1 [Compound 19, (3R,3aS)-3-(hydroxylmethyl)-7-(6-(3-oxomorpholin)pyridin-3-yl)-3a,4-dihydrobenzo[b]oxazolo[3,4-d][1,4]oxazin-1(3H)-one]
11 | 16 to 32 (≈ 39 to 78 µM) | 2 to 4 (≈ 4.87 to 9.75 µM) | 2 to 4 (≈ 4.87 to 9.75 µM) | 2 to 4 (≈ 4.87 to 9.75 µM) | 2 to 4 (≈ 4.87 to 9.75 µM) | 4 to 8 (≈ 9.75 to 19.5 µM) | CN1CCN(c2ccc(-c3ccc4c(c3)OC[C@H]3[C@H](CO)OC(=O)N43)cn2)C(=O)C1 [Compound 20, (3R,3aS)-3-(hydroxylmethyl)-7-(6-(4-methyl-2-oxopiperazin-1-yl)pyridin-3-yl)-3a,4-dihydrobenzo[b]oxazolo[3,4-d][1,4]oxazin-1(3H)-one]
12 | 0.5 to 1 (≈ 1.21 to 2.42 µM) | 0.5 to 1 (≈ 1.21 to 2.42 µM) | 0.5 to 1 (≈ 1.21 to 2.42 µM) | 0.5 to 1 (≈ 1.21 to 2.42 µM) | 0.25 to 0.5 (≈ 0.605 to 1.21 µM) | 1 (≈ 2.42 µM) | O=C1OC(CO)CN1c1ccc(-c2ccc3c(c2)OC[C@H]2[C@H](CO)OC(=O)N32)cn1 (stereo partly drawn) [Compound 24, (3R,3aS)-3-(hydroxylmethyl)-7-(6-(5-(hydroxylmethyl)-2-oxooxazolidin-3-yl)pyridin-3-yl)-3a,4-dihydrobenzo[b]oxazolo[3,4-d][1,4]oxazin-1(3H)-one]
13 | 0.5 to 1 (≈ 1.21 to 2.42 µM) | 0.5 to 1 (≈ 1.21 to 2.42 µM) | 0.5 to 1 (≈ 1.21 to 2.42 µM) | 0.5 to 1 (≈ 1.21 to 2.42 µM) | 0.5 to 1 (≈ 1.21 to 2.42 µM) | 1 (≈ 2.42 µM) | O=C1O[C@H](CO)CN1c1ccc(-c2ccc3c(c2)OC[C@H]2[C@H](CO)OC(=O)N32)cn1 [Compound 25, (3R,3S)-3-(hydroxylmethyl)-7-(6-((S)-5-(hydroxylmethyl)-2-oxooxazolidin-3-yl)pyridin-3-yl)-3a,4-dihydrobenzo[b]oxazolo[3,4-d][1,4]oxazin-1(3H)-one]
14 | 0.5 to 1 (≈ 1.21 to 2.42 µM) | 0.5 to 1 (≈ 1.21 to 2.42 µM) | 0.5 to 1 (≈ 1.21 to 2.42 µM) | 0.5 to 1 (≈ 1.21 to 2.42 µM) | 0.5 to 1 (≈ 1.21 to 2.42 µM) | 1 (≈ 2.42 µM) | O=C1O[C@@H](CO)CN1c1ccc(-c2ccc3c(c2)OC[C@H]2[C@H](CO)OC(=O)N32)cn1 [Compound 26, (3R,3aS)-3-(hydroxylmethyl)-7-(6-((R)-5-(hydroxylmethyl)-2-oxo-oxazolidin-3-yl)pyridin-3-yl)-3a,4-dihydrobenzo[b]oxazolo[3,4-d][1,4]oxazin-1(3H)-one]
15 | 1 (≈ 2.52 µM) | 1 (≈ 2.52 µM) | 1 (≈ 2.52 µM) | 0.5 to 1 (≈ 1.26 to 2.52 µM) | 1 (≈ 2.52 µM) | 0.25 to 0.5 (≈ 0.629 to 1.26 µM) | CN1C[C@@H](c2ccc(-c3ccc4c(c3)OC[C@H]3[C@H](CO)OC(=O)N43)cn2)OC1=O [Compound 27, (3R,3aS)-3-(hydroxylmethyl)-7-(6-((R)-3-methyl-2-oxazolidin-5-yl)pyridin-3-yl)-3a,4-dihydrobenzo[b]oxazolo[3,4-d][1,4]oxazin-1(3H)-one]
16 | 2 (≈ 5.03 µM) | 2 (≈ 5.03 µM) | 2 (≈ 5.03 µM) | 1 to 2 (≈ 2.52 to 5.03 µM) | 2 (≈ 5.03 µM) | 2 (≈ 5.03 µM) | CN1C[C@H](c2ccc(-c3ccc4c(c3)OC[C@H]3[C@H](CO)OC(=O)N43)cn2)OC1=O [Compound 28, (3R,3aS)-3-(hydroxylmethyl)-7-(6-((S)-3-methyl-2-oxazolidin-5-yl)pyridin-3-yl)-3a,4-dihydrobenzo[b]oxazolo[3,4-d][1,4]oxazin-1(3H)-one]
17 | 2 (≈ 5.66 µM) | 1 (≈ 2.83 µM) | 2 to 4 (≈ 5.66 to 11.3 µM) | 1 to 2 (≈ 2.83 to 5.66 µM) | 1 (≈ 2.83 µM) | 1 to 2 (≈ 2.83 to 5.66 µM) | NC1(c2ccc(-c3ccc4c(c3)OC[C@H]3[C@H](CO)OC(=O)N43)cn2)CC1 [Compound 29, (3R,3aS)-7-(6-(1-aminocyclopropyl)pyridin-3-yl)-3-(hydroxylmethyl)-3a,4-dihydrobenzo[b]oxazolo[3,4-d][1,4]oxazin-1(3H)-one]
18 | 4 to 8 (≈ 12.2 to 24.4 µM) | 2 to 4 (≈ 6.11 to 12.2 µM) | 2 to 4 (≈ 6.11 to 12.2 µM) | 0.5 to 4 (≈ 1.53 to 12.2 µM) | 1 to 2 (≈ 3.05 to 6.11 µM) | 4 to 16 (≈ 12.2 to 48.9 µM) | NCc1ccc(-c2ccc3c(c2)OC[C@H]2[C@H](CO)OC(=O)N32)cn1 [Compound 30, (3R,3aS)-7-(6-(aminomethyl)pyridin-3-yl)-3-(hydroxylmethyl)-3a,4-dihydrobenzo[b]oxazolo[3,4-d][1,4]oxazin-1(3H)-one]
19 | 16 (≈ 40.4 µM) | 2 to 4 (≈ 5.05 to 10.1 µM) | 2 to 4 (≈ 5.05 to 10.1 µM) | 2 to 4 (≈ 5.05 to 10.1 µM) | 2 to 4 (≈ 5.05 to 10.1 µM) | 4 (≈ 10.1 µM) | O=C1CNCCN1c1ccc(-c2ccc3c(c2)OC[C@H]2[C@H](CO)OC(=O)N32)cn1 [Compound 31, (3R,3aS)-3-(hydroxylmethyl)-7-(6-(2-oxopiperazin-1-yl)pyridin-3-yl)-3a,4-dihydrobenzo[b]oxazolo[3,4-d][1,4]oxazin-1(3H)-one]
